# According to patent US20240360126A1, “PYRAZOLO[3,4-B]PYRIDINE COMPOUNDS FOR THE TREATMENT OF AUTOIMMUNE DISEASE” (Hoffmann-La Roche Inc., priority 2021, published 2024):
# Target: T1, human TLR7 (Homo sapiens, UniProt Q9NYK1)
# T1 construct: host or cells: HEK293 (HEK-Blue hTLR7)
# T1 sequence (Q9NYK1 27-1049): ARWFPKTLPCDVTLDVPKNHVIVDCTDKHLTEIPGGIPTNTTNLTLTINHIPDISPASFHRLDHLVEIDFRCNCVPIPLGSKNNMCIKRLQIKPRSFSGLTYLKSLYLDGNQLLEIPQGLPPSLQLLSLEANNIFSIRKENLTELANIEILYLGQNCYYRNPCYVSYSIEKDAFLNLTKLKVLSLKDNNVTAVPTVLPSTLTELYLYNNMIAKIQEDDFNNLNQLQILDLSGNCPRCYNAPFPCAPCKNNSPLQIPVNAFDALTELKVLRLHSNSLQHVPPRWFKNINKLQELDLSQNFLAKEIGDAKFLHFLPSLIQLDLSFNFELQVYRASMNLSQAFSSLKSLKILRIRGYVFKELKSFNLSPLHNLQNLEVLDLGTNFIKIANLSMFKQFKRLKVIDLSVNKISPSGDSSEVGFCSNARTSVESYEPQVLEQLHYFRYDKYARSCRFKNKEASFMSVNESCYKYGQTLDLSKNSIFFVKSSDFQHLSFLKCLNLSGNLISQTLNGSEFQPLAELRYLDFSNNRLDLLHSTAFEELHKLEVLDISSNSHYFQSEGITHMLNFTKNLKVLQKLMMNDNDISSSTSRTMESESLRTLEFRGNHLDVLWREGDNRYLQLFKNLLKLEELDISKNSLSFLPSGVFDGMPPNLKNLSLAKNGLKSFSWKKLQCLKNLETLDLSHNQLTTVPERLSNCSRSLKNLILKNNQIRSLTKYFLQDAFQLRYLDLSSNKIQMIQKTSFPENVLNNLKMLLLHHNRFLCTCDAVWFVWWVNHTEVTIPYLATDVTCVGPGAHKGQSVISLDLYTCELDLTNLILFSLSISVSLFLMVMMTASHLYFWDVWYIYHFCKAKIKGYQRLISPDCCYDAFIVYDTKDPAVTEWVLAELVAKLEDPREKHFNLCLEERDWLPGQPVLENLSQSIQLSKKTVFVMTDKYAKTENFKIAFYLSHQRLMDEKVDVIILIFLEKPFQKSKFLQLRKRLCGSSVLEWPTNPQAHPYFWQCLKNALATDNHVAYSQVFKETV
# Assay: HEK293-Blue-hTLR-7 cells assay
# Format: cell-based
# Conditions: HEK293-Blue-hTLR7 cells, R848 stimulation, 20 hrs; read-out: HEK/hTLR7 IC50
# Text: A stable HEK293-Blue-hTLR-7 cell line was purchased from InvivoGen (Cat. #: hkb-htlr7, San Diego, California, USA). These cells were originally designed for studying the stimulation of human TLR7 by monitoring the activation of NF-κB. A SEAP (secreted embryonic alkaline phosphatase) reporter gene was placed under the control of the IFN-β minimal promoter fused to five NF-κB and AP-1-binding sites. The SEAP was induced by activating NF-κB and AP-1 via stimulating HEK-Blue hTLR7 cells with TLR7 ligands. Therefore the reporter expression was declined by TLR7 antagonist under the stimulation of a ligand, such as R848 (Resiquimod), for incubation of 20 hrs. The cell culture supernatant SEAP reporter activity was determined using QUANTI-Blue™ kit (Cat. #: rep-qbl, Invivogen, San Diego, Ca, USA) at a wavelength of 640 nm, a detection medium that turns purple or blue in the presence of alkaline phosphatase.
# HEK293-Blue-hTLR7 cells were incubated at a density of 250,000-450,000 cells/mL in a volume of 170 μL in a 96-well plate in Dulbecco's Modified Eagle's medium (DMEM) containing 4.5 g/L glucose, 50 U/mL penicillin, […] streptomycin, […] Normocin, […] L-glutamine, 10% […] heat-inactivated fetal bovine serum with addition of 20 μL test compound in a serial dilution in the presence of final DMSO at 1% and 10 μL of 20 μM R848 in above DMEM, perform incubation under 37° C. in a CO2 incubator for 20 hrs. Then 20 μL of the supernatant from each well was incubated with 180 μL Quanti-blue substrate solution at 37° C. for 2 hrs and the absorbance was read at […] using a spectrophotometer. The signaling pathway that TLR7 activation leads to downstream NF-κB activation has been widely accepted, and therefore similar reporter assay was modified for evaluating TLR7 antagonist.
row,SMILES,IC50 [nM]
1,"Cc1cc(N2CCC(c3ncc(N4CC[C@@H](N)[C@@H](F)C4)cc3C)CC2)c2cnn(C)c2n1 [Example 15, (3S,4R)-1-[6-[1-(1,6-dimethylpyrazolo[3,4-b]pyridin-4-yl)-4-piperidyl]-5-methyl-3-pyridyl]-3-fluoro-piperidin-4-amine]",24
2,"Cc1cc(N2CC[C@H](c3ccc(N4CCOC[C@@H](N)C4)cn3)[C@@H](C)C2)c2cnn(C)c2n1 [Example 40, (6S)-4-[6-[(3R,4S)-1-(1,6-dimethylpyrazolo[3,4-b]pyridin-4-yl)-3-methyl-4-piperidyl]-3-pyridyl]-1,4-oxazepan-6-amine]",9
3,"Cc1cc(N2CCNCC2)cnc1C1CCN(c2ccnc3c2cnn3C)CC1 [Example 5, 1-methyl-4-[4-(3-methyl-5-piperazin-1-yl-2-pyridyl)-1-piperidyl]pyrazolo[3,4-b]pyridine]",8
4,"Cc1cc(N2CCC(c3ccc(N4CCNCC4)nc3C)CC2)c2cnn(C)c2n1 [Example 10, 1,6-dimethyl-4-[4-(2-methyl-6-piperazin-1-yl-3-pyridyl)-1-piperidyl]pyrazolo[3,4-b]pyridine]",39
5,"Cc1cc(N2CC[C@@H](c3ncc(N4CC5(CNCCO5)C4)cc3C)[C@H](C)C2)c2cnn(C)c2n1 [Example 27, 2-[6-[(3S,4R)-1-(1,6-dimethylpyrazolo[3,4-b]pyridin-4-yl)-3-methyl-4-piperidyl]-5-methyl-3-pyridyl]-5-oxa-2,8-diazaspiro[3.5]nonane]",9
6,"Cc1cc(N2CCC(c3ncc(N4CCNCC4)cc3C)[C@H](C)C2)c2cnn(C)c2n1 (single isomer, unassigned) [Example 24, 1,6-dimethyl-4-[cis-3-methyl-4-(3-methyl-5-piperazin-1-yl-2-pyridyl)-1-piperidyl]pyrazolo[3,4-b]pyridine]",82
7,"CO[C@H]1CN(c2ccc([C@H]3CCN(c4cc(C)nc5c4cnn5C)C[C@@H]3C)nc2)CC[C@@H]1N [Example 39, (3S,4S)-1-[6-[(3R,4S)-1-(1,6-dimethylpyrazolo[3,4-b]pyridin-4-yl)-3-methyl-4-piperidyl]-3-pyridyl]-3-methoxy-piperidin-4-amine]",12
8,"Cc1cc(N2CCC(c3cnc(N4CCNCC4)cc3C)CC2)c2cnn(C)c2n1 [Example 8, 1,6-dimethyl-4-[4-(4-methyl-6-piperazin-1-yl-3-pyridyl)-1-piperidyl]pyrazolo[3,4-b]pyridine]",52
9,"Cc1cc(N2CC[C@@H](c3ncc(N4CC(C)(N)C4)cc3C)[C@H](C)C2)c2cnn(C)c2n1 [Example 32, 1-[6-[(3S,4R)-1-(1,6-dimethylpyrazolo[3,4-b]pyridin-4-yl)-3-methyl-4-piperidyl]-5-methyl-3-pyridyl]-3-methyl-azetidin-3-amine]",8
10,"COC[C@H]1CN(c2cnc(C3CCN(c4cc(C)nc5c4cnn5C)CC3)c(C)c2)CCN1 [Example 16, 4-[4-[5-[(3R)-3-(methoxymethyl)piperazin-1-yl]-3-methyl-2-pyridyl]-1-piperidyl]-1,6-dimethyl-pyrazolo[3,4-b]pyridine]",23
11,"Cc1cc(N2CC[C@H](c3ccc(N4CC[C@@H](N)[C@H](F)C4)cn3)[C@@H](C)C2)c2cnn(C)c2n1 [Example 41, (3R,4R)-1-[6-[(3R,4S)-1-(1,6-dimethylpyrazolo[3,4-b]pyridin-4-yl)-3-methyl-4-piperidyl]-3-pyridyl]-3-fluoro-piperidin-4-amine]",6
12,"Cc1cc(N2CCC(c3cc(C)c(N4CCNCC4)cn3)CC2)c2cnn(C)c2n1 [Example 9, 1,6-dimethyl-4-[4-(4-methyl-5-piperazin-1-yl-2-pyridyl)-1-piperidyl]pyrazolo[3,4-b]pyridine]",39
13,"Cc1cc(N2CC[C@@H](c3ncc(N4CC[C@@H](N)[C@H](F)C4)cc3C)[C@H](C)C2)c2cnn(C)c2n1 [Example 31, (3R,4R)-1-[6-[(3S,4R)-1-(1,6-dimethylpyrazolo[3,4-b]pyridin-4-yl)-3-methyl-4-piperidyl]-5-methyl-3-pyridyl]-3-fluoro-piperidin-4-amine]",5
14,"CO[C@H]1CN(c2cnc(C3CCN(c4cc(C)nc5c4cnn5C)CC3)c(C)c2)CC[C@@H]1N [Example 17, (3S,4S)-1-[6-[1-(1,6-dimethylpyrazolo[3,4-b]pyridin-4-yl)-4-piperidyl]-5-methyl-3-pyridyl]-3-methoxy-piperidin-4-amine]",22
15,"Cc1cc(N2CCC(c3ncc(N4CCNCC4)cn3)CC2)c2cnn(C)c2n1 [Example 4, 1,6-dimethyl-4-[4-(5-piperazin-1-ylpyrimidin-2-yl)-1-piperidyl]pyrazolo[3,4-b]pyridine]",31
16,"Cc1cc(N2CCNCC2)ncc1C1CCN(c2ccnc3c2cnn3C)CC1 [Example 6, 1-methyl-4-[4-(4-methyl-6-piperazin-1-yl-3-pyridyl)-1-piperidyl]pyrazolo[3,4-b]pyridine]",7
17,"COc1cc(N2CCNCC2)cnc1C1CCN(c2cc(C)nc3c2cnn3C)CC1 [Example 14, 4-[4-(3-methoxy-5-piperazin-1-yl-2-pyridyl)-1-piperidyl]-1,6-dimethyl-pyrazolo[3,4-b]pyridine]",12
18,"CO[C@@H]1CN(c2cnc([C@@H]3CCN(c4cc(C)nc5c4cnn5C)C[C@H]3C)c(C)c2)C[C@H]1N [Example 26, (3R,4R)-1-[6-[(3S,4R)-1-(1,6-dimethylpyrazolo[3,4-b]pyridin-4-yl)-3-methyl-4-piperidyl]-5-methyl-3-pyridyl]-4-methoxy-pyrrolidin-3-amine]",12
19,"CCc1cc(N2CCNCC2)cnc1C1CCN(c2cc(C)nc3c2cnn3C)CC1 [Example 13, 4-[4-(3-ethyl-5-piperazin-1-yl-2-pyridyl)-1-piperidyl]-1,6-dimethyl-pyrazolo[3,4-b]pyridine]",26
20,"Cc1cc(N2CCC(c3cnc(N4CCNCC4)cc3C)[C@H](C)C2)c2cnn(C)c2n1 (single isomer, unassigned) [Example 20, 1,6-dimethyl-4-[cis-3-methyl-4-(4-methyl-6-piperazin-1-yl-3-pyridyl)-1-piperidyl]pyrazolo[3,4-b]pyridine]",50
21,"Cc1cc(N2CCC(c3ncc(N4CCNCC4)nc3C)[C@H](C)C2)c2cnn(C)c2n1 (single isomer, unassigned) [Example 23, 1,6-dimethyl-4-[trans-3-methyl-4-(3-methyl-5-piperazin-1-yl-pyrazin-2-yl)-1-piperidyl]pyrazolo[3,4-b]pyridine]",11
22,"Cc1cc(N2CC[C@@H](c3ncc(N4C[C@H]5NCCO[C@@H]5C4)cc3C)[C@H](C)C2)c2cnn(C)c2n1 [Example 33, (4aR,7aR)-6-[6-[(3S,4R)-1-(1,6-dimethylpyrazolo[3,4-b]pyridin-4-yl)-3-methyl-4-piperidyl]-5-methyl-3-pyridyl]-3,4,4a,5,7,7a-hexahydro-2H-pyrrolo[3,4-b][1,4]oxazine]",11
23,"Cc1cc(N2CC[C@H](c3ccc(N4CC(C)(N)C4)cn3)[C@@H](C)C2)c2cnn(C)c2n1 [Example 43, 1-[6-[(3R,4S)-1-(1,6-dimethylpyrazolo[3,4-b]pyridin-4-yl)-3-methyl-4-piperidyl]-3-pyridyl]-3-methyl-azetidin-3-amine]",16
24,"Cc1cc(N2CCC(c3ccc(N4CCNCC4)cn3)CC2)c2cnn(C)c2n1 [Example 2, 1,6-dimethyl-4-[4-(5-piperazin-1-yl-2-pyridyl)-1-piperidyl]pyrazolo[3,4-b]pyridine]",27
